Read-outs that look alike come from different tables or passages of the source. Starred links: 1 amine or outer side, 2 acyl side, 3 side chain; linkers in the order of their positions; H or OH if unused. Positions of bridges follow the written chain, without caps; N, C: chain ends. Residues, ends and D or L forms follow the SMILES beside them. Primed or numbered codes have the meaning given here. Chains are numbered I, II in the order given. No end group written: not given here. Ida(3) = iminodiacetic acid linker, Lys side-chain amines bound to its two carboxyl groups; Ida(4) = iminodiacetic acid linker (dimerization linker bound to lysine side chain); Ida″ = iminodiacetic acid linker bound to the Lys side-chain amine, forming a dimer; X1 = CC(C)(C)OC(=O)NCCC(=O)N(CCC(=O)[*:1])CCN(CCC(=O)[*:2])C(=O)CCNC(=O)OC(C)(C)C
Test system: HUVECs
Type: cell-based
In short: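 Proliferation read-out: BrdU incorporation after 48-hour culture (37 ° C, 5% CO2) with graded peptide doses. Cells were in EBM with 2% FCS at 5,000 per well, driven by VEGF (5 ng/ml) or bFGF (10 ng/ml), added after ≥12-hour attachment.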

[1] = HUVEC proliferation, bFGF at 10 ng/ml or VEGF at 5 ng/ml, 48 hours, BrdU incorporation, read-out: IC50 on HUVECs

Row | Molecule | IC50 [1] | IC50 (48 h)
1 | 188 (Ac-RRRRHQRVRIIF; also: dimer: C-terminal Phe bound to an amino group of a Lys linker, 2 chains per Lys) [compound 188] | < 10 µM | 
2 | KTKRKAKKQRVKIIFVQNM [compound 118] | < 10 µM | 
3 | RKKQRVKIAYEEIFV [compound 64] | 10 to 30 µM | 
4 | 437 (Ac-RRRRMQAVAIYFK(Ida(4)); not fully specified (C-terminus); also: homodimer via Ida linker at K13) [compound 437] | < 10 µM | 
5 | KTKRKRKKIAYEEIFVQNM [compound 58] | > 30 µM | 
6 | 247 (Ac-RRRRHQRVHIIF; also: homodimer: C-termini of two chains bound to the two amines of a Lys linker) [compound 247] | < 10 µM | 
7 | 242 (Ac-RRHRRQHVRIIF; also: dimer via C-terminal Phe to Lys linker) [compound 242] | < 10 µM | 
8 | 215 (Ac-ARRRAQRVAIIF; also: dimer: Phe C-termini joined via Lys linker) [compound 215] | < 10 µM | 
9 | KTKRKRKKQRVKIAYAAIFVQNM [compound 48] | > 30 µM | 
10 | 338 (Ac-RHRRRQHVHIYFK(Ida(3))-NH2; also: homodimer via Lys13 side chain, Ida linker (Ida amino group Boc)) [compound 338] | < 10 µM | 
11 | CC[C@H](C)[C@H](NC(=O)[C@H](C)NC(=O)[C@@H](NC(=O)[C@H](CCCNC(=N)N)NC(=O)[C@H](CCC(N)=O)NC(=O)[C@H](CCCNC(=N)N)NC(=O)[C@H](CCCNC(=N)N)NC(=O)[C@H](CCCNC(=N)N)NC(=O)[C@H](CCCNC(=N)N)NC(=O)[C@H](C)NC(C)=O)C(C)C)C(=O)N[C@@H](Cc1ccc(O)cc1)C(=O)N[C@@H](Cc1ccccc1)C(=O)N[C@@H](CCCCNC(=O)CCN(CCN(CCC(=O)NCCCC[C@H](NC(=O)[C@H](Cc1ccccc1)NC(=O)[C@H](Cc1ccc(O)cc1)NC(=O)[C@@H](NC(=O)[C@H](C)NC(=O)[C@@H](NC(=O)[C@H](CCCNC(=N)N)NC(=O)[C@H](CCC(N)=O)NC(=O)[C@H](CCCNC(=N)N)NC(=O)[C@H](CCCNC(=N)N)NC(=O)[C@H](CCCNC(=N)N)NC(=O)[C@H](CCCNC(=N)N)NC(=O)[C@H](C)NC(C)=O)C(C)C)[C@@H](C)CC)C(N)=O)C(=O)CCNC(=O)OC(C)(C)C)C(=O)CCNC(=O)OC(C)(C)C)C(N)=O [Peptide 331] (I: Ac-ARRRRQRVAIYFK-NH2 / II: Ac-ARRRRQRVAIYFK-NH2; linker I:13-II:13 via X1; C-terminus assumed) |  | < 10 µM
12 | 404 (Ac-IRRRRQAVAIYFK(Ida(3))-NH2; also: homodimer via Ida linker on Lys13 side chain, Boc on Ida amine) [compound 404] | < 10 µM | 
13 | KTKRKRKKQRVKIAYEEIFVQN [compound 25] | < 10 µM | 
14 | 332 (XRRRHQHVRIYFK; not fully specified; Xaa = Acylated Histidine; The side chain of Lysine at position 13 is covalently bound to an Ida linker forming a homodimer of residues 1 through 13.) [compound 332] | < 10 µM | 
15 | 345 (Ac-ARRRRQRVAIYWK-NH2; not fully specified (residue 13); also: homodimer of residues 1-13 via Ida linker on Lys13 side chain) [compound 345] | < 10 µM | 
16 | 489 (Ac-PRRRPQAVAIK(Ida″)F; also: homodimer via Ida linker on Lys11 side chain) [compound 489] | < 10 µM | 
17 | 413 (Ac-WRRRRQAVAIYFK; not fully specified (residue 13, C-terminus); also: homodimer via Ida linker on Lys side chains, linker at 13 via Ida, other end not in the chain) [compound 413] | < 10 µM | 
18 | 460 (Ac-ARRK(Ida(3))RQAVAIYF; also: homodimer via Ida linker on Lys side chains, linker at 4 via Ida, other end not in the chain) [compound 460] | 10 to 30 µM | 

Source: patent US20070203066A1, “Compositions and methods for inhibiting cellular proliferation” (priority 2005, published 2007)
